# Assay results from article PMC4022547 (Molecular Brain, 2014).
# Key:
# hα6(D199Y) + hβ4 nAChR = hα6(D199Y) + hβ4 nAChR (Homo sapiens, UniProt P30926+Q15825, D199Y); experiment: Oocyte two-electrode voltage clamp; format: cell-based
# Method: (§1) We planned to introduce identical amounts of cRNA, presumably producing equal amounts of each subunit protein, into oocytes largely due to lack of information about the levels of mRNA for each subunits that compose α6*-nAChRs in neurons or other cells. Concentrations of cRNAs for each nAChR α and β subunits (WT, mutant or variant) were adjusted to 500 ng μL^−1. We provisionally assumed that hα6 or its variants in association with hβ2 or hβ4 subunits would form complexes having 2:3 and/or 3:2 ratios of the indicated subunits and that oocytes also injected with WT or mutant form of β3 subunits (i.e., β3^V9’S) would express nAChR with 2:2:1 ratios of α:β:(β3 or β3^V9’S) subunits. For expression of binary nAChRs (i.e., two subunit containing nAChRs; α + β but not β3) cRNA mixtures were prepared by mixing 1 μL of cRNA for each subunit and an additional μL of RNAse free water (i.e., total volume 3 μL). Similarly for expression of ternary nAChRs [i.e., three subunit containing nAChRs; (α + β) + (β3 or β3^V9’S)] cRNA mixtures were prepared by mixing 1 μL of cRNA for each subunit. Several preparations of each mixture were prepared and stored at −80°C until further use. Injection of 138 nL of cRNA, out of 3 μL cRNA mixtures, into each oocyte would deliver ~23 ng of cRNA for each subunit whether binary or ternary nAChRs are expressed.
# (§2) Two to 5 days after injection, oocytes were placed in a small-volume chamber and continuously perfused with OR2. The chamber was grounded through an agarose bridge. The oocytes were voltage-clamped at −70 mV (unless otherwise noted) to measure agonist or antagonist induced currents using Axoclamp 900A and pClamp 10.2 software (Molecular Devices, Sunnyvale, CA). The current signal was low-pass filtered at 10 Hz with the built-in low-pass Bessel filter in the Axoclamp 900A and digitized at 20 Hz with Axon Digidata1440A and pClamp10. […] Drugs (agonists and antagonists) were prepared daily in OR2. Drug was applied using a Valvelink 8.2 perfusion system (Automate scientific, Berkeley, CA). […] Then for the purpose of comparison electrophysiological recordings were performed in a given day in a given batch of oocytes following the same order of injections. […] All hβ4*-nAChR recordings were done in similar conditions to facilitate comparisons between hα6hβ4- and hα6hβ4hβ3-nAChRs. All electrophysiological measurements were conducted or checked in at least two batches of oocytes.
# (§3) Raw data was collected and processed in part using pClamp 10.2 (Molecular Devices, Sunnyvale, CA), Origin 7.5 (OriginLab Corporation, Northampton, MA) and a spreadsheet (Excel; Microsoft, Bellevue, WA). Peak current amplitudes (Imax) are reported as mean ± SEM (for results from at least three oocytes, i.e., n = 3).
# [1] = biological target: T1, hα6(R96H) + hβ4 + hβ3 nAChR (Homo sapiens, UniProt P30926+Q15825, R96H); experiment: Oocyte two-electrode voltage clamp; format: cell-based
# T1 construct: Full length capped mRNA (i.e., cRNA) was transcribed from linearized plasmids; expressed in transfected cells; host or cells: Xenopus laevis oocytes injected with cRNA
# T1 sequence (Q15825 26-494 R96H): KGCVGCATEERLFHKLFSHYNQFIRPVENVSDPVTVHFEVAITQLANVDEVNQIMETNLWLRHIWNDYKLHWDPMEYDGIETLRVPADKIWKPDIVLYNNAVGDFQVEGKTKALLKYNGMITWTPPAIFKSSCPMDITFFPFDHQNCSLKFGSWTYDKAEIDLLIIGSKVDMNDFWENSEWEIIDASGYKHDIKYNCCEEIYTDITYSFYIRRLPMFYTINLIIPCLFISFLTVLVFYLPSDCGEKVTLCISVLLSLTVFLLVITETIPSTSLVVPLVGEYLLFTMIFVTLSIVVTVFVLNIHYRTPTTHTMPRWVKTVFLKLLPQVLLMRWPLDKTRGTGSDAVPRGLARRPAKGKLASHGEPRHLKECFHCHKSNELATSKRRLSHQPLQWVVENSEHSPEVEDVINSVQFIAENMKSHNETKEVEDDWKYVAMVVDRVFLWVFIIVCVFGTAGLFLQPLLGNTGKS
# T1 sequence (P30926 22-498, stated change not applied): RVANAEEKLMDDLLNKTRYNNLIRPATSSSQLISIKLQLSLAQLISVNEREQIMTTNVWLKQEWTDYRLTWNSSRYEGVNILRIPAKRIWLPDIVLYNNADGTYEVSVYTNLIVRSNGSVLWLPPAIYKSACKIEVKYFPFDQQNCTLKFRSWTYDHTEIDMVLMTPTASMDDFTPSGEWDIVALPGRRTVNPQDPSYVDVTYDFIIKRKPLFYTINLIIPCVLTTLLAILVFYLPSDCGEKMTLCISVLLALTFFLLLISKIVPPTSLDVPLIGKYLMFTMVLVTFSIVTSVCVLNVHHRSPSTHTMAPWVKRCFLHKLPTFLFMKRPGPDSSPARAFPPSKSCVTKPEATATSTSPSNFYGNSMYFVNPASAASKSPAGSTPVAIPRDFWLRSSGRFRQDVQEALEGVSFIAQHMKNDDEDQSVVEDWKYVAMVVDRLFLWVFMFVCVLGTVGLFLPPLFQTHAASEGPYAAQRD
# T1 sequence (Q05901 25-458 partner limits assumed): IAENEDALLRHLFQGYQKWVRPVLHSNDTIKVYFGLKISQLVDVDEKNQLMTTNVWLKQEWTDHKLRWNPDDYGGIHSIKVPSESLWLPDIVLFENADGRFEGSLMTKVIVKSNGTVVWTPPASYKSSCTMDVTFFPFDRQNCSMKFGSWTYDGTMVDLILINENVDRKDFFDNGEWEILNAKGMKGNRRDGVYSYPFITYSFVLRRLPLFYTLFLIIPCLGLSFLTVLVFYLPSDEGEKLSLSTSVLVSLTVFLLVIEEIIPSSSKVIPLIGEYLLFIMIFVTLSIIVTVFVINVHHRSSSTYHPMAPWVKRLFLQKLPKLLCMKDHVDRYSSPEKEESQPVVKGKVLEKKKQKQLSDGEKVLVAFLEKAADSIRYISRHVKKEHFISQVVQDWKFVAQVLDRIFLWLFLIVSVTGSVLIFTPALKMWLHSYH
# Method: as §1, §2, §3
# hα6(A184D) + hβ4 nAChR = hα6(A184D) + hβ4 nAChR (Homo sapiens, UniProt P30926+Q15825, A184D); experiment: Oocyte two-electrode voltage clamp; format: cell-based
# hα6(A184D) + hβ4 nAChR, sequence (Q15825 26-494 A184D): as the sequence (Q15825 26-494 R96H) above, with H71R, A159D counted along it
# hα6(A184D) + hβ4 nAChR, sequence (P30926 22-498): as the sequence (P30926 22-498, stated change not applied) above
# Method: as §1, §2, §3
# hα6 + hβ4 nAChR [2] = biological target: T2, hα6 + hβ4 nAChR (Homo sapiens, UniProt P30926+Q15825); experiment: Oocyte two-electrode voltage clamp; format: cell-based
# T2 sequence (Q15825 26-494): as the sequence (Q15825 26-494 R96H) above, with H71R counted along it
# T2 sequence (P30926 22-498): as the sequence (P30926 22-498, stated change not applied) above
# Method: as §1, §2, §3
# [3] = biological target: T3, hα6(R87C) + WT hβ2 + hβ3^V9’S nAChR (Homo sapiens, UniProt P17787+Q15825, R87C); experiment: Oocyte two-electrode voltage clamp; format: cell-based
# T3 construct: Full length capped mRNA (i.e., cRNA) was transcribed from linearized plasmids; expressed in transfected cells; host or cells: Xenopus laevis oocytes injected with cRNA
# Method: as §1, §2, §3
# hα6(R96H) + hβ4 nAChR = biological target: T4, hα6(R96H) + hβ4 nAChR (Homo sapiens, UniProt P30926+Q15825, R96H); experiment: Oocyte two-electrode voltage clamp; format: cell-based
# T4 construct: Full length capped mRNA (i.e., cRNA) was transcribed from linearized plasmids; expressed in transfected cells; host or cells: Xenopus laevis oocytes injected with cRNA
# Method: as §1, §2, §3
# hα6 + hβ4 nAChR [4] = biological target: T2, hα6 + hβ4 nAChR; parameters: method as in Kuryatov et al. (2000) [29]; conditions: ref Kuryatov et al. (2000) [29]; cited from earlier work
# hα6hβ4hβ3^V9’S-nAChR = hα6hβ4hβ3^V9’S-nAChR (Homo sapiens, UniProt P30926+Q05901+Q15825, V273S); conditions: nicotine (100 μM), ACh (100 μM) or atropine (1000 μM); spontaneously opening channels
# Method: as §1, §2
# [5] = biological target: hα6^S156Rhβ4hβ3^V9’S-nAChR (Homo sapiens, UniProt P30926+Q15825, S156R); conditions: nicotine (100 μM), ACh (100 μM) or atropine (1000 μM)
# Method: as §1, §2
# [6] = biological target: hα6^N171Khβ4β3^V9’S-nAChR (Homo sapiens, UniProt P30926+Q15825, N171K); conditions: nicotine (100 μM), ACh (100 μM) or atropine (1000 μM)
# Method: as §1, §2
# [7] = biological target: hα6^R87C + hβ4 + hβ3^V9’S nAChR (Homo sapiens, UniProt P30926+Q15825, R87C); conditions: nicotine (100 μM), ACh (100 μM) or atropine (1000 μM)
# Method: as §1, §2
# [8] = biological target: hα6^D57Nhβ4hβ3^V9’S-nAChR (Homo sapiens, UniProt P30926+Q15825, D57N); conditions: nicotine (100 μM), ACh (100 μM) or atropine (1000 μM)
# Method: as §1, §2
# hα6 + hβ4 + hβ3 nAChR = hα6 + hβ4 + hβ3 nAChR (Homo sapiens, UniProt P30926+Q15825); parameters: method as in PMID 11044728; conditions: ref [29]; cited from earlier work
# [9] = 100 μM nicotine, oocytes clamped at −70 mV
# hα6(D199Y) + hβ4 nAChR, sequence (Q15825 26-494 D199Y): as the sequence (Q15825 26-494 R96H) above, with H71R, D174Y counted along it
# hα6(D199Y) + hβ4 nAChR, sequence (P30926 22-498): as the sequence (P30926 22-498, stated change not applied) above
compound,measurement,setting,value
"CN1CCC[C@H]1c1cccnc1 [nicotine, L-nicotine]",EC50,hα6(D199Y) + hβ4 nAChR,4.4 µM
same,Imax conc. (concentration where maximal peak current achieved),hα6(D199Y) + hβ4 nAChR,100 µM
same,nH ± SE (Hill coefficient),hα6(D199Y) + hβ4 nAChR,1.1±0.26
same,"peak current (Imax, mean ± SE)",hα6(D199Y) + hβ4 nAChR; [9],90 ± 11 nA
same,EC50,[1],8.2 µM
same,Imax conc. (concentration where maximal peak current achieved),[1],100 µM
same,nH ± SE (Hill coefficient),[1],1.2±0.13
same,Mean (±SE) peak current response,[1]; [9],513 ± 42 nA
same,EC50,hα6(A184D) + hβ4 nAChR,2.7 µM
same,Imax conc. (concentration where maximal peak current achieved),hα6(A184D) + hβ4 nAChR,100 µM
same,nH ± SE (Hill coefficient),hα6(A184D) + hβ4 nAChR,1.1±0.15
same,"peak current (Imax, mean ± SE)",hα6(A184D) + hβ4 nAChR; [9],122 ± 12 nA
same,Imax conc. (concentration where maximal peak current achieved),hα6 + hβ4 nAChR [2],100 µM
same,"peak current (Imax, mean ± SE)",hα6 + hβ4 nAChR [2]; [9],35 ± 2 nA
same,current response,"[3]; ACh, nicotine or atropine, hβ2 type not specified",not obtained
same,current response,[3]; nicotine,did not yield current responses
same,Imax conc. (concentration where maximal peak current achieved),hα6(R96H) + hβ4 nAChR,100 µM
same,"peak current (Imax, mean ± SE)",hα6(R96H) + hβ4 nAChR; [9],73 ± 10 nA
same,EC50,hα6 + hβ4 nAChR [4],7.1 µM
same,current response (direction),hα6hβ4hβ3^V9’S-nAChR,robust inward current
same,current response (direction),[5],outward reversible currents
same,current response (direction),[6],outward reversible currents
same,current response,[7],not obtained
same,current response (direction),[8],outward reversible currents
same,EC50,hα6 + hβ4 + hβ3 nAChR,10 ± 3 µM
